Results from ChEMBL document CHEMBL1201862, “PubChem BioAssay data set” (2004).
Active and inactive are the calls of the source.

Tested on: INS1
Test: INS-1E survival protection against cytokine death – cell-based, luminescence, retest, dose response (AID 449756);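 note: cell death triggered by IL-1 beta plus TNF-alpha plus IFN-gamma mixture; protective hits raise ATP signal compared with cytokine alone wells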
Assay type: functional
Conditions: Rattus norvegicus

Structure (SMILES)	AC50
CCN(CC)S(=O)(=O)c1cccc(NC(=O)c2cc(-c3cccs3)nn2-c2ccccc2)c1	10.3 µM (active)
CC(C)c1ccc(COc2ccc(C(=O)N3CCOCC3)cc2)cc1	9.42 µM (active)
N=c1c2ccccc2nc2n1CCCCCCCCCCC2	9.52 µM (active)
O=C(CNC(=O)c1ccc2c(c1)OCO2)N/N=C/c1cc(Br)ccc1O	3.36 µM (active)

Biological target: T1, Streptokinase A (Streptococcus pyogenes serotype M1, UniProt P10520)
T1 sequence (P10520 whole entry): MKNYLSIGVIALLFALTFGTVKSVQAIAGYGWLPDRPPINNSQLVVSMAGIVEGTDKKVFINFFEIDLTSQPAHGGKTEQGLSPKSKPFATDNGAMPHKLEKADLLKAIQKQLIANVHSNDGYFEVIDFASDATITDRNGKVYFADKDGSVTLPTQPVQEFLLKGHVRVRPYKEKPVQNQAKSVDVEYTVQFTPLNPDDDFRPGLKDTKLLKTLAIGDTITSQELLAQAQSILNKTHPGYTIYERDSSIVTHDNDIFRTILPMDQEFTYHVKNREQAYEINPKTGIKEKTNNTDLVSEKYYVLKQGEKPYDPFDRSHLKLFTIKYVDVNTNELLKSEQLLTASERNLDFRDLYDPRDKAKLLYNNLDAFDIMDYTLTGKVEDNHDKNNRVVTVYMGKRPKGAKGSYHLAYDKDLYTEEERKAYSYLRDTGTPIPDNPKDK
Test: viability-normalized secreted streptokinase activity reduction – plasminogen activation absorbance, OD405, dose response (AID 1914);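 note: secreted streptokinase activity via plasminogen activation per viability signal from cell pellet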
Assay type: functional, Streptococcus pyogenes M1 GAS
Conditions: not given

Structure (SMILES)	EC50
Cc1ccc(NC(=O)c2cccc(OCc3c(C)noc3C)c2)cc1S(=O)(=O)Nc1ccccc1Cl	> 150 µM (not active)
O=C(O)CSCC(=O)N(Cc1ccccc1)c1nc(-c2ccccc2)c(-c2ccccc2)s1	2.81 µM (active)
Cc1ccc(-c2csc(NNC(=O)c3ccccc3)n2)cc1	> 150 µM (not active)
Cc1cccc(CSc2nc(N)c(C#N)c(-c3cccs3)c2C#N)c1	4.93 µM (active)
CC1(C)Cc2c(cnn2-c2ccccc2)C(NC(=O)CCCN2CCCC2=O)C1 (stereo not given)	> 150 µM (not active)
FC(F)(F)Oc1ccc(N=C(S)Nc2ccc(OC(F)(F)F)cc2)cc1	> 150 µM (not active)
COc1ccc(NS(=O)(=O)c2cccc(NC(=O)CCC(=O)c3ccc(Cl)cc3)c2)cc1	> 150 µM (not active)
Cc1ccc(NS(=O)(=O)c2ccc(C3CCCCC3)cc2)cc1	4.17 µM (active)
Cn1ncc2c(Nc3ccc(Cl)c(Cl)c3)ncnc21	> 150 µM (not active)
O=C(CNC(=O)c1ccc2c(c1)OCO2)N/N=C/c1cc(Br)ccc1O	> 150 µM (not active)
COc1cnc(-c2ccccn2)nc1Oc1c(C)cccc1C	> 150 µM (not active)
O=C(Nc1cccc(F)c1)N1CCCCCC1	> 150 µM (not active)

Biological target: Cytochrome P450 2C19 (Homo sapiens, UniProt P33261)
Test: Cytochrome panel assay with activity outcomes. Panel member name: p450-cyp2c19 Compounds with AC50 equal or less than 10 uM are considered active
Assay type: functional
Conditions: not given

Sequence of Cytochrome P450 2C19 (P33261 whole entry): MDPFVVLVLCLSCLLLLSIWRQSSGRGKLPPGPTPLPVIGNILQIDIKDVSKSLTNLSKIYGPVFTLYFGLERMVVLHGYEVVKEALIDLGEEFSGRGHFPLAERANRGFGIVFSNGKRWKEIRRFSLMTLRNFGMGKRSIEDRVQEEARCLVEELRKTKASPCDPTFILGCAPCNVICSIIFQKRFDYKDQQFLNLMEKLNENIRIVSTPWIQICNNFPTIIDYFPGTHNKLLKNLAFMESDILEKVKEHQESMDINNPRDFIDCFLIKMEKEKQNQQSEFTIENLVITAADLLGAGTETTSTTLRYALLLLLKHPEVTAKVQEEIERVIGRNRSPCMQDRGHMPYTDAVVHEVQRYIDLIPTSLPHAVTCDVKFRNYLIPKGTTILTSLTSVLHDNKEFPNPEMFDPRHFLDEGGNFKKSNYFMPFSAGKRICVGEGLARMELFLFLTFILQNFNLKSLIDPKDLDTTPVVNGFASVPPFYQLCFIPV

Structure (SMILES)	AC50
Cn1c(CCN2CCCCC2)nc2cc([N+](=O)[O-])ccc21	inconclusive
CO[C@@H](C)[C@](O)(C(=O)OCC1=CCN2CC[C@@H](O)[C@H]12)C(C)C	inconclusive
O=P([O-])([O-])C(Cl)(Cl)P(=O)(O)O.[Na+].[Na+] [CLODRONATE DISODIUM]	inconclusive
CN1c2ccccc2C(O)=C(C(=O)Nc2ccccc2)S1(=O)=O	inconclusive

Same assay, conditions: read-out: AC50

Structure (SMILES)	AC50
COc1ccc(NC(=O)COC(=O)Cn2c(C)nc3ccccc32)cc1OC	3.55 µM (inconclusive)
CC(=O)NCCNc1nc(-c2cccc(NS(C)(=O)=O)c2)nc2ccccc12	39.8 µM (inconclusive)
CC(C)(C)c1ccc(OCC(=O)NNC(=O)Cc2cccs2)cc1	20 µM (inconclusive)
CN1CCC(=C2c3ccccc3Sc3ccccc32)CC1 [PIMETHIXENE]	15.8 µM (inconclusive)
CCCNC(=O)Cn1cnc2sc(C(=O)Nc3ccc4c(c3)OCO4)c(C)c2c1=O	0.00562 µM (inconclusive)
CCOC(=O)c1sc(NC(C)=O)nc1-c1ccccc1	10 µM (inconclusive)
CCOC(=O)CSc1n[nH]c(-c2cccnc2)n1	11.2 µM (inconclusive)

Tested on: Streptococcus sp. 'group A'
Test: Streptococcus pyogenes SK(-)GAS viability under kanamycin – luminescence, BacTiterGlo, confirmation, counter-screen for streptokinase expression inhibitor project, dose response (AID 1900)
Assay type: functional, organism-based
Conditions: not given

Structure (SMILES)	EC50
O=C(O)CSCC(=O)N(Cc1ccccc1)c1nc(-c2ccccc2)c(-c2ccccc2)s1	0.996 µM (active)
Cc1ccc(-c2csc(NNC(=O)c3ccccc3)n2)cc1	4.37 µM (active)
Cc1cccc(CSc2nc(N)c(C#N)c(-c3cccs3)c2C#N)c1	5.04 µM (active)
CC1(C)Cc2c(cnn2-c2ccccc2)C(NC(=O)CCCN2CCCC2=O)C1 (stereo not given)	> 150 µM (not active)
FC(F)(F)Oc1ccc(N=C(S)Nc2ccc(OC(F)(F)F)cc2)cc1	15.8 µM (active)
COc1ccc(NS(=O)(=O)c2cccc(NC(=O)CCC(=O)c3ccc(Cl)cc3)c2)cc1	11.2 µM (active)
Cc1ccc(NS(=O)(=O)c2ccc(C3CCCCC3)cc2)cc1	4.32 µM (active)
Cn1ncc2c(Nc3ccc(Cl)c(Cl)c3)ncnc21	7.9 µM (active)
O=C(CNC(=O)c1ccc2c(c1)OCO2)N/N=C/c1cc(Br)ccc1O	10.1 µM (active)
COc1cnc(-c2ccccn2)nc1Oc1c(C)cccc1C	6.39 µM (active)
O=C(Nc1cccc(F)c1)N1CCCCCC1	> 150 µM (not active)

Biological target: Cytochrome P450 2D6 (Homo sapiens, UniProt P10635);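 note: CYP2D6 member of a cytochrome P450 panel assay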
Conditions: not given

Sequence of Cytochrome P450 2D6 (P10635 whole entry): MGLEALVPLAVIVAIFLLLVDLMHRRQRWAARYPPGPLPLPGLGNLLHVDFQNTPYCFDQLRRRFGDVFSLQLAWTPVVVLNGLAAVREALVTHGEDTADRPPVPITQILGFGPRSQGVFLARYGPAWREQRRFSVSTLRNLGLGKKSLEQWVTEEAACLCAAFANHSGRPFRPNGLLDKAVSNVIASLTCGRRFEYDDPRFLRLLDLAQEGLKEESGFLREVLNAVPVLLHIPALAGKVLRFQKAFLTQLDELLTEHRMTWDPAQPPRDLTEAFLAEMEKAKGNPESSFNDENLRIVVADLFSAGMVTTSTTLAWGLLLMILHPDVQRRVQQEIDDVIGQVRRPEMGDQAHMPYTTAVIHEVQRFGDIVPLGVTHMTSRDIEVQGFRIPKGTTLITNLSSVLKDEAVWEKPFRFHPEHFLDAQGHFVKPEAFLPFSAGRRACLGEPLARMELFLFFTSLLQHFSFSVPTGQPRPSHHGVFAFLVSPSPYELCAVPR

Structure (SMILES)	AC50
Cn1c(CCN2CCCCC2)nc2cc([N+](=O)[O-])ccc21	14.1 µM (inconclusive)
CC(=O)NCCNc1nc(-c2cccc(NS(C)(=O)=O)c2)nc2ccccc12	10 µM (inconclusive)
CO[C@@H](C)[C@](O)(C(=O)OCC1=CCN2CC[C@@H](O)[C@H]12)C(C)C	3.98 µM (inconclusive)
CCCNC(=O)Cn1cnc2sc(C(=O)Nc3ccc4c(c3)OCO4)c(C)c2c1=O	5.01 µM (inconclusive)

Tested on: not listed separately
Test: Trypanosoma cruzi growth suppression in host cells – NIH3T3 host cells, beta-gal luminescence, confirmation (AID 2044);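 note: intracellular parasites grown in NIH/3T3 mouse fibroblasts as host cells; luminescent beta-galactosidase reporter signal from transgenic T. cruzi replicating inside host cells; inhibitors lower the luminescence signal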
Assay type: functional, cell-based
Conditions: not given

Structure (SMILES)	EC50
Cc1cccc(CSc2nc(N)c(C#N)c(-c3cccs3)c2C#N)c1	2.31 µM (active)

Tested on: Streptococcus
Test: GAS UMAA2166 growth inhibition – luminescence, BacTiterGlo, counter-screen for streptokinase expression inhibitor project, dose response (AID 1915);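 note: potency for reduction of bacterial viability or growth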
Assay type: functional, organism-based
Conditions: not given

Structure (SMILES)	EC50
Cc1ccc(NC(=O)c2cccc(OCc3c(C)noc3C)c2)cc1S(=O)(=O)Nc1ccccc1Cl	57.1 µM (active)
O=C(O)CSCC(=O)N(Cc1ccccc1)c1nc(-c2ccccc2)c(-c2ccccc2)s1	8.03 µM (active)
Cc1ccc(-c2csc(NNC(=O)c3ccccc3)n2)cc1	> 150 µM (not active)
Cc1cccc(CSc2nc(N)c(C#N)c(-c3cccs3)c2C#N)c1	> 150 µM (not active)
CC1(C)Cc2c(cnn2-c2ccccc2)C(NC(=O)CCCN2CCCC2=O)C1 (stereo not given)	> 150 µM (not active)
FC(F)(F)Oc1ccc(N=C(S)Nc2ccc(OC(F)(F)F)cc2)cc1	22 µM (active)
COc1ccc(NS(=O)(=O)c2cccc(NC(=O)CCC(=O)c3ccc(Cl)cc3)c2)cc1	25.3 µM (active)
Cc1ccc(NS(=O)(=O)c2ccc(C3CCCCC3)cc2)cc1	7.04 µM (active)
Cn1ncc2c(Nc3ccc(Cl)c(Cl)c3)ncnc21	16 µM (active)
O=C(CNC(=O)c1ccc2c(c1)OCO2)N/N=C/c1cc(Br)ccc1O	25.2 µM (inconclusive)
COc1cnc(-c2ccccn2)nc1Oc1c(C)cccc1C	> 150 µM (not active)
O=C(Nc1cccc(F)c1)N1CCCCCC1	> 150 µM (not active)

Tested on: not listed separately
Test: NIH3T3 cell viability loss – ATP luminescence, mouse fibroblasts, counter-screen, dose response (AID 2010);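 note: cells exposed to compound for about 90 hours before reading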
Assay type: functional, cell-based
Conditions: not given

Structure (SMILES)	EC50
Cc1cccc(CSc2nc(N)c(C#N)c(-c3cccs3)c2C#N)c1	> 60 µM (inconclusive)

Biological target: T2, Cytochrome P450 1A2 (Homo sapiens, UniProt P05177);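 note: PubChem cytochrome P450 panel assay, CYP1A2 panel member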
T2 sequence (P05177 whole entry): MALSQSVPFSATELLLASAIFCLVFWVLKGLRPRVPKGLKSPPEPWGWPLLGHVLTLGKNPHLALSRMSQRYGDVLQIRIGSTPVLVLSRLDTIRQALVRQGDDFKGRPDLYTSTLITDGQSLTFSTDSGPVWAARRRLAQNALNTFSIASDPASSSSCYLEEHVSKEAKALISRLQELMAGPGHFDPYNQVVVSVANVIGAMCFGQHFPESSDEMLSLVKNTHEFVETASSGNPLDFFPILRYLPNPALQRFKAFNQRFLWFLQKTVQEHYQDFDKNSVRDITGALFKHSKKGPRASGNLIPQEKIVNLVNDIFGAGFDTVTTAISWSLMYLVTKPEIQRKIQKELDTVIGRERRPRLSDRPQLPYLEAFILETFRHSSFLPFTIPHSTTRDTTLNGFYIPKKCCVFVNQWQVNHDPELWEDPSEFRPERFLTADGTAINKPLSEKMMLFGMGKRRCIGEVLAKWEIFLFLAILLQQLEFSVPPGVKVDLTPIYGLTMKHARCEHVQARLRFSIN
Conditions: not given

Structure (SMILES)	AC50
CC(C)(C)c1ccc(OCC(=O)NNC(=O)Cc2cccs2)cc1	28.2 µM (inconclusive)

Biological target: Cytochrome P450 3A4 (Homo sapiens, UniProt P08684);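 note: CYP3A4 tested as one member of a cytochrome P450 panel screen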
Conditions: not given

Sequence of Cytochrome P450 3A4 (P08684 whole entry): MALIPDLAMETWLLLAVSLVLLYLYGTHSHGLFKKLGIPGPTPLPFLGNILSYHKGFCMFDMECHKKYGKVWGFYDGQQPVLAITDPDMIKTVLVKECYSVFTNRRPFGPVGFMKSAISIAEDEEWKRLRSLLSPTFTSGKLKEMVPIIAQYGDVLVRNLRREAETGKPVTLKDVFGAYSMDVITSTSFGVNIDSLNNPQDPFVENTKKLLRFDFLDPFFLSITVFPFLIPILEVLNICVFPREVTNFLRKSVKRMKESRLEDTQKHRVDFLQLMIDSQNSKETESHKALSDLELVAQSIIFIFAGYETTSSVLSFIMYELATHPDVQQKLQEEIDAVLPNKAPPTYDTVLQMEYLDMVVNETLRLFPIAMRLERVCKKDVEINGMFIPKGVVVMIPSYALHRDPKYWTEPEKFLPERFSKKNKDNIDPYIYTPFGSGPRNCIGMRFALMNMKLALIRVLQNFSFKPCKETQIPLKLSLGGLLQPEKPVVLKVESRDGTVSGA

Structure (SMILES)	AC50
CCCNC(=O)Cn1cnc2sc(C(=O)Nc3ccc4c(c3)OCO4)c(C)c2c1=O	1.41 µM (inconclusive)
CCOC(=O)CSc1n[nH]c(-c2cccnc2)n1	15.8 µM (inconclusive)
CN1c2ccccc2C(O)=C(C(=O)Nc2ccccc2)S1(=O)=O	39.8 µM (inconclusive)
